# Measured values from patent US20090156518A1, “STABLE PHARMACEUTICAL COMPOSITION COMPRISING BETA-LACTAM ANTIBIOTIC AND BUFFER” (priority 2006, published 2009).
# Marks after values point to notes of the source that are not given here.
# Assay: amounts of β-lactam antibiotic, β-lactamase inhibitor (C18 reverse-phase LC, UV-VIS) and aminoglycoside (HPLC-ELSD) in solution over time
# Type: physicochemical
smiles,measurement,setting,value
CC1(C)[C@H](C(=O)O)N2C(=O)C[C@H]2S1(=O)=O [Sulbactam sodium],amount of component as percentage with respect to the amount at the initial time,"Example 4: cefoperazone sodium 4 g, sulbactam sodium 0.5 g, gentamicin 80 mg, citrate pH 6.75, 200 mL water, room temperature, Time 0 h",101.4%
same,amount of component as percentage with respect to the amount at the initial time,"Example 4: cefoperazone sodium 4 g, sulbactam sodium 0.5 g, gentamicin 80 mg, citrate pH 6.75, 200 mL water, room temperature, Time 1 h",101.4%
same,amount of component as percentage with respect to the amount at the initial time,"Example 4: cefoperazone sodium 4 g, sulbactam sodium 0.5 g, gentamicin 80 mg, citrate pH 6.75, 200 mL water, room temperature, Time 2 h",101.5%
same,amount of component as percentage with respect to the amount at the initial time,"Example 4: cefoperazone sodium 4 g, sulbactam sodium 0.5 g, gentamicin 80 mg, citrate pH 6.75, 200 mL water, room temperature, Time 4 h",109.7%
same,amount of component as percentage with respect to the amount at the initial time,"Example 4: cefoperazone sodium 4 g, sulbactam sodium 0.5 g, gentamicin 80 mg, citrate pH 6.75, 200 mL water, room temperature, Time 6 h",103.2%
same,amount of component as percentage with respect to the amount at the initial time,"Example 5: freeze-dried cefoperazone sodium 4 g, sulbactam sodium 0.5 g, citrate pH 6.75, + amikacin sulfate 500 mg, 7 days 0° C., dissolved in 100 mL water, Time 0 h",101.4%
same,amount of component as percentage with respect to the amount at the initial time,"Example 5: freeze-dried cefoperazone sodium 4 g, sulbactam sodium 0.5 g, citrate pH 6.75, + amikacin sulfate 500 mg, 7 days 0° C., dissolved in 100 mL water, Time 1 h",101.4%
same,amount of component as percentage with respect to the amount at the initial time,"Example 5: freeze-dried cefoperazone sodium 4 g, sulbactam sodium 0.5 g, citrate pH 6.75, + amikacin sulfate 500 mg, 7 days 0° C., dissolved in 100 mL water, Time 2 h",101.5%
same,amount of component as percentage with respect to the amount at the initial time,"Example 5: freeze-dried cefoperazone sodium 4 g, sulbactam sodium 0.5 g, citrate pH 6.75, + amikacin sulfate 500 mg, 7 days 0° C., dissolved in 100 mL water, Time 4 h",109.7%
same,amount of component as percentage with respect to the amount at the initial time,"Example 5: freeze-dried cefoperazone sodium 4 g, sulbactam sodium 0.5 g, citrate pH 6.75, + amikacin sulfate 500 mg, 7 days 0° C., dissolved in 100 mL water, Time 6 h",103.2%
same,amount of component as percentage with respect to the amount at the initial time,"Example 6: freeze-dried cefoperazone sodium 4 g, sulbactam sodium 1 g, citrate pH 6.75, + etimicin sulfate 200 mg, 7 days 0° C., dissolved in 100 mL water, Time 0 h",99.62%
same,amount of component as percentage with respect to the amount at the initial time,"Example 6: freeze-dried cefoperazone sodium 4 g, sulbactam sodium 1 g, citrate pH 6.75, + etimicin sulfate 200 mg, 7 days 0° C., dissolved in 100 mL water, Time 1 h",100.4%
same,amount of component as percentage with respect to the amount at the initial time,"Example 6: freeze-dried cefoperazone sodium 4 g, sulbactam sodium 1 g, citrate pH 6.75, + etimicin sulfate 200 mg, 7 days 0° C., dissolved in 100 mL water, Time 2 h",100.2%
same,amount of component as percentage with respect to the amount at the initial time,"Example 6: freeze-dried cefoperazone sodium 4 g, sulbactam sodium 1 g, citrate pH 6.75, + etimicin sulfate 200 mg, 7 days 0° C., dissolved in 100 mL water, Time 4 h",100.2%
same,amount of component as percentage with respect to the amount at the initial time,"Example 7: ceftriaxone sodium 4 g, sulbactam sodium 1 g, gentamicin sulfate 80 mg, citrate pH 6.75, 200 mL water, room temperature (22° C.), Time 0 h",96.84%
same,amount of component as percentage with respect to the amount at the initial time,"Example 7: ceftriaxone sodium 4 g, sulbactam sodium 1 g, gentamicin sulfate 80 mg, citrate pH 6.75, 200 mL water, room temperature (22° C.), Time 1 h",94.43%
same,amount of component as percentage with respect to the amount at the initial time,"Example 7: ceftriaxone sodium 4 g, sulbactam sodium 1 g, gentamicin sulfate 80 mg, citrate pH 6.75, 200 mL water, room temperature (22° C.), Time 2 h",93.35%
same,amount of component as percentage with respect to the amount at the initial time,"Example 7: ceftriaxone sodium 4 g, sulbactam sodium 1 g, gentamicin sulfate 80 mg, citrate pH 6.75, 200 mL water, room temperature (22° C.), Time 4 h",93.23%
same,amount of component as percentage with respect to the amount at the initial time,"Example 7: ceftriaxone sodium 4 g, sulbactam sodium 1 g, gentamicin sulfate 80 mg, citrate pH 6.75, 200 mL water, room temperature (22° C.), Time 6 h",92.13%
same,amount of component as percentage with respect to the amount at the initial time,"Example 7: ceftriaxone sodium 4 g, sulbactam sodium 1 g, gentamicin sulfate 80 mg, citrate pH 6.75, 200 mL water, room temperature (22° C.), Time 8 h",93.38%
same,amount of component as percentage with respect to the amount at the initial time,"Example 10: mezlocillin sodium 2 g, sulbactam sodium 0.5 g, etimicin sulfate 200 mg, citrate pH 6.5, 200 mL water, room temperature, Time 0 h",98.07%
same,amount of component as percentage with respect to the amount at the initial time,"Example 10: mezlocillin sodium 2 g, sulbactam sodium 0.5 g, etimicin sulfate 200 mg, citrate pH 6.5, 200 mL water, room temperature, Time 1 h",98.13%
same,amount of component as percentage with respect to the amount at the initial time,"Example 10: mezlocillin sodium 2 g, sulbactam sodium 0.5 g, etimicin sulfate 200 mg, citrate pH 6.5, 200 mL water, room temperature, Time 2 h",72.96%
same,amount of component as percentage with respect to the amount at the initial time,"Example 10: mezlocillin sodium 2 g, sulbactam sodium 0.5 g, etimicin sulfate 200 mg, citrate pH 6.5, 200 mL water, room temperature, Time 4 h",95.16%
same,amount of component as percentage with respect to the amount at the initial time,"Example 10: mezlocillin sodium 2 g, sulbactam sodium 0.5 g, etimicin sulfate 200 mg, citrate pH 6.5, 200 mL water, room temperature, Time 6 h",99.65%
same,amount of component as percentage with respect to the amount at the initial time,"Example 10: mezlocillin sodium 2 g, sulbactam sodium 0.5 g, etimicin sulfate 200 mg, citrate pH 6.5, 200 mL water, room temperature, Time 8 h",104.9%
same,amount of component as percentage with respect to the amount at the initial time,"Example 11: freeze-dried mezlocillin sodium, sulbactam sodium, citrate pH 6.5, 7 days 0° C., in 100 mL 5% fructose + etimicin sulfate 200 mg, Time 0 h",114.3%
same,amount of component as percentage with respect to the amount at the initial time,"Example 11: freeze-dried mezlocillin sodium, sulbactam sodium, citrate pH 6.5, 7 days 0° C., in 100 mL 5% fructose + etimicin sulfate 200 mg, Time 1 h",95.83%
same,amount of component as percentage with respect to the amount at the initial time,"Example 11: freeze-dried mezlocillin sodium, sulbactam sodium, citrate pH 6.5, 7 days 0° C., in 100 mL 5% fructose + etimicin sulfate 200 mg, Time 2 h",93.75%
same,amount of component as percentage with respect to the amount at the initial time,"Example 11: freeze-dried mezlocillin sodium, sulbactam sodium, citrate pH 6.5, 7 days 0° C., in 100 mL 5% fructose + etimicin sulfate 200 mg, Time 4 h",93.78%
same,amount of component as percentage with respect to the amount at the initial time,"Example 11: freeze-dried mezlocillin sodium, sulbactam sodium, citrate pH 6.5, 7 days 0° C., in 100 mL 5% fructose + etimicin sulfate 200 mg, Time 6 h",95.65%
same,amount of component as percentage with respect to the amount at the initial time,"Example 11: freeze-dried mezlocillin sodium, sulbactam sodium, citrate pH 6.5, 7 days 0° C., in 100 mL 5% fructose + etimicin sulfate 200 mg, Time 8 h",101.0%
same,amount of component as percentage with respect to the amount at the initial time,"Example 14: freeze-dried cefoperazone sodium 4 g, sulbactam sodium 2 g, citrate pH 6.75, 7 days 0° C., in 100 mL water, 10 mL + gentamicin sulfate 16 mg, room temperature, Time 0 h",92.44%
same,amount of component as percentage with respect to the amount at the initial time,"Example 14: freeze-dried cefoperazone sodium 4 g, sulbactam sodium 2 g, citrate pH 6.75, 7 days 0° C., in 100 mL water, 10 mL + gentamicin sulfate 16 mg, room temperature, Time 1 h",91.27%
same,amount of component as percentage with respect to the amount at the initial time,"Example 14: freeze-dried cefoperazone sodium 4 g, sulbactam sodium 2 g, citrate pH 6.75, 7 days 0° C., in 100 mL water, 10 mL + gentamicin sulfate 16 mg, room temperature, Time 2 h",90.78%
same,amount of component as percentage with respect to the amount at the initial time,"Example 14: freeze-dried cefoperazone sodium 4 g, sulbactam sodium 2 g, citrate pH 6.75, 7 days 0° C., in 100 mL water, 10 mL + gentamicin sulfate 16 mg, room temperature, Time 4 h",88.38* %
same,amount of component as percentage with respect to the amount at the initial time,"Example 14: freeze-dried cefoperazone sodium 4 g, sulbactam sodium 2 g, citrate pH 6.75, 7 days 0° C., in 100 mL water, 10 mL + gentamicin sulfate 16 mg, room temperature, Time 6 h",86.86* %
same,amount of component as percentage with respect to the amount at the initial time,"Example 15: freeze-dried cefoperazone sodium 4 g, sulbactam sodium 4 g, citrate pH 6.75, 7 days 0° C., in 100 mL water, 10 mL + gentamicin sulfate 16 mg, room temperature, Time 0 h",99.50%
same,amount of component as percentage with respect to the amount at the initial time,"Example 15: freeze-dried cefoperazone sodium 4 g, sulbactam sodium 4 g, citrate pH 6.75, 7 days 0° C., in 100 mL water, 10 mL + gentamicin sulfate 16 mg, room temperature, Time 1 h",96.28%
same,amount of component as percentage with respect to the amount at the initial time,"Example 15: freeze-dried cefoperazone sodium 4 g, sulbactam sodium 4 g, citrate pH 6.75, 7 days 0° C., in 100 mL water, 10 mL + gentamicin sulfate 16 mg, room temperature, Time 2 h",102.5%
same,amount of component as percentage with respect to the amount at the initial time,"Example 15: freeze-dried cefoperazone sodium 4 g, sulbactam sodium 4 g, citrate pH 6.75, 7 days 0° C., in 100 mL water, 10 mL + gentamicin sulfate 16 mg, room temperature, Time 4 h",95.78* %
same,amount of component as percentage with respect to the amount at the initial time,"Example 15: freeze-dried cefoperazone sodium 4 g, sulbactam sodium 4 g, citrate pH 6.75, 7 days 0° C., in 100 mL water, 10 mL + gentamicin sulfate 16 mg, room temperature, Time 6 h",70.74* %
same,amount of component as percentage with respect to the amount at the initial time,"Example 17: freeze-dried cefoperazone sodium 4 g, sulbactam sodium 1 g, citrate pH 6.75, 7 days 0° C., in 100 mL water, 10 mL + amikacin sulfate 40 mg, room temperature, Time 0 h",105.6%
same,amount of component as percentage with respect to the amount at the initial time,"Example 17: freeze-dried cefoperazone sodium 4 g, sulbactam sodium 1 g, citrate pH 6.75, 7 days 0° C., in 100 mL water, 10 mL + amikacin sulfate 40 mg, room temperature, Time 1 h",112.2%
same,amount of component as percentage with respect to the amount at the initial time,"Example 17: freeze-dried cefoperazone sodium 4 g, sulbactam sodium 1 g, citrate pH 6.75, 7 days 0° C., in 100 mL water, 10 mL + amikacin sulfate 40 mg, room temperature, Time 2 h",112.6%
same,amount of component as percentage with respect to the amount at the initial time,"Example 17: freeze-dried cefoperazone sodium 4 g, sulbactam sodium 1 g, citrate pH 6.75, 7 days 0° C., in 100 mL water, 10 mL + amikacin sulfate 40 mg, room temperature, Time 4 h",118.5%
same,amount of component as percentage with respect to the amount at the initial time,"Example 17: freeze-dried cefoperazone sodium 4 g, sulbactam sodium 1 g, citrate pH 6.75, 7 days 0° C., in 100 mL water, 10 mL + amikacin sulfate 40 mg, room temperature, Time 6 h",123.3%
same,amount of component as percentage with respect to the amount at the initial time,"Example 17: freeze-dried cefoperazone sodium 4 g, sulbactam sodium 1 g, citrate pH 6.75, 7 days 0° C., in 100 mL water, 10 mL + amikacin sulfate 40 mg, room temperature, Time 8 h",127.1%
same,amount of component as percentage with respect to the amount at the initial time,"Example 19: ceftriaxone sodium 2 g, sulbactam sodium 2 g, gentamicin sulfate 160 mg, citrate pH 6.75, 200 mL water, room temperature, Time 0 h",96.84%
same,amount of component as percentage with respect to the amount at the initial time,"Example 19: ceftriaxone sodium 2 g, sulbactam sodium 2 g, gentamicin sulfate 160 mg, citrate pH 6.75, 200 mL water, room temperature, Time 1 h",94.43%
same,amount of component as percentage with respect to the amount at the initial time,"Example 19: ceftriaxone sodium 2 g, sulbactam sodium 2 g, gentamicin sulfate 160 mg, citrate pH 6.75, 200 mL water, room temperature, Time 2 h",93.35%
same,amount of component as percentage with respect to the amount at the initial time,"Example 19: ceftriaxone sodium 2 g, sulbactam sodium 2 g, gentamicin sulfate 160 mg, citrate pH 6.75, 200 mL water, room temperature, Time 4 h",93.23%
same,amount of component as percentage with respect to the amount at the initial time,"Example 19: ceftriaxone sodium 2 g, sulbactam sodium 2 g, gentamicin sulfate 160 mg, citrate pH 6.75, 200 mL water, room temperature, Time 6 h",92.13%
same,amount of component as percentage with respect to the amount at the initial time,"Example 19: ceftriaxone sodium 2 g, sulbactam sodium 2 g, gentamicin sulfate 160 mg, citrate pH 6.75, 200 mL water, room temperature, Time 8 h",93.38%
